“Also recorded” adds a separate entry of the source.
Legend:
[1] = tested on: patients diagnosed with mild to moderate AD; assay: CIBIC+ (Clinician's Interview-Based Impression of Change with caregiver information) in Alzheimer's patients; assay type: in vivo, human
Description: (§1) Analysis for the full intent to treat (ITT) population was performed on 511 subjects who were randomly allocated into one of four specific treatment regimes. Genotyping analysis was performed on 63% (323/511) of the ITT population.
(§2) Patient population included Caucasian males and females between 50-85 years of age who had been diagnosed with mild to moderate AD, were not receiving any medications which could adversely prejudice the study (e.g. PPAR-gamma agonists or conventional AD medicaments) or had any other potentially prejudicial ailments (e.g. diabetes or major psychiatric disorders).
(§3) Patients received either placebo or one of three dosage levels of extended release rosiglitazone provided once daily (2 mg, 4 mg and 8 mg tablets as described in Example 1). Patients were examined using the cognitive Alzheimer's Disease Assessment Scale (ADAS-cog; for further information see Rosen W G et al. Am. J. Psychiatry. 1984 141:1356-1364) and the Clinician's Interview-Based Impression of Change with caregiver information (CIBIC+; for further information see Knopman D S et al. Neurology 1994 44: 2315-2321); and secondary assessments were performed using: the Disability Assessment for Dementia (DAD, for further information see Gelinas L et al. Am J Occup Ther 1999 53: 471-81) and the Neuropsychiatric Inventory test (NPI, for further information see Cummings et al (1994) Neurology 44, 2308-2314) at the start of the study (baseline) and during the course of the study (after 8, 16 and 24 weeks of treatment).
(§4) APOE genotype was determined using the TaqMan PCR-based method of McLeod et al 2001 infra.
(§5) All statistics reflect last observed assessment carried forward (LOCF) measurements.
Higher CIBIC+ scores indicate a greater level of decline with scores below 4 denoting clinical improvement and scores above 4 denoting clinical decline.

[2] = tested on: patients diagnosed with mild to moderate AD; assay: Disability Assessment for Dementia (DAD) in Alzheimer's patients; assay type: in vivo, human; details: week 24
Description: as §3
Similar results were identified using the Disability Assessment for Dementia (DAD) test (Gelinas L et al. Am J Occup Ther 1999 53: 471-81). A prospectively defined test for interaction between APOE4 carriage status and DAD scores at week 24 was significant (P=0.006).

[3] = tested on: patients diagnosed with mild to moderate AD; assay: Neuropsychiatric Inventory (NPI) test in Alzheimer's patients; assay type: in vivo, human; details: week 24
Description: as §3
Similar results were identified using the Neuropsychiatric Inventory (NPI) test (Cummings et al (1994) Neurology 44, 2308-2314). A prospectively defined test for interaction between APOE4 carriage status and NPI scores at week 24 was significant ([…]).

[4] = tested on: dopaminergic cells; details: acetaldehyde, MPTP; cited from earlier work
[5] = tested on: patients diagnosed with mild to moderate AD; assay: ADAS-cog (cognitive Alzheimer's Disease Assessment Scale) in Alzheimer's patients; assay type: in vivo, human; details: for Cognitive function (ADAS-cog), in words / ADAS-cog change, in words: 24 weeks; for ADAS-cog change from baseline (FIG. 3), in words: course of the study
Description: as §1, §2, §3, §4, §5
It should be noted that in the case of ADAS-cog higher scores indicate reduced cognitive function.

[6] = tested on: individuals with mild cognitive impairment; details: at three years; cited from earlier work
[7] = tested on: patients with moderate to severe AD; details: cited from earlier work
[8] = tested on: AD and MCI; details: clinical trial; cited from earlier work

For `CN(CCOc1ccc(CC2SC(=O)NC2=O)cc1)c1ccccn1` (stereo not drawn) [Rosi, 5-[4-[2-(N-methyl-N-(2-pyridyl)amino)ethoxy]benzyl]thiazolidine-2,4-dione], the “CIBIC+, in words” value ([1]; APOE4 heterozygotes, 2 mg, 24 weeks) was “decline”, the “CIBIC+, in words” value ([1]; APOE4 heterozygotes, 4 mg, 24 weeks) was “Less decline” and the “CIBIC+, in words” value ([1]; APOE4 heterozygotes, 8 mg, 24 weeks) was “slight improvement”. For the same molecule, the “CIBIC+, in words” value ([1]; APOE4 homozygotes, 24 weeks, compared to placebo) was “slight improvement”, the “CIBIC+, in words” value ([1]; APOE4− patients, 24 week period) was “slight improvement” and the “CIBIC+ difference between treatment groups and placebo, in words” value ([1]; ITT population, 24 weeks) was “did not lead to a distinguishable difference”. For the same molecule, the “CIBIC+ model adjusted, LSMean (SE)” value ([1]; Table 13a (updated analysis, additional subjects), PGx ITT population, APOE4 copies 1, Rosi 8 mg (n = 23), after 24 weeks) was 3.70 (0.24), the “DAD, in words” value ([2]; APOE4+ subjects) was “demonstrated no improvement” and the “DAD, in words” value ([2]; APOE4− subjects) was “demonstrated improvement on DAD”. For the same molecule, the “NPI, in words” value ([3]; APOE4+ subjects) was “demonstrated no improvement”, the “NPI, in words” value ([3]; APOE4− subjects) was “demonstrated improvement on NPI” and the “Protection of dopaminergic cells from toxic insults” value [4] was “can protect dopaminergic cells”. The “ADAS-cog change from baseline (FIG. 2), in words” value ([5]; APOE4+ individuals, 2 mg, 4 mg or 8 mg, after 8 weeks) was “slight improvement”, the “ADAS-cog change from baseline (FIG. 2), in words” value ([5]; APOE4+ individuals, 2 mg, after 16 weeks) was “greater decline than the placebo” and the “ADAS-cog change from baseline (FIG. 2), in words” value ([5]; APOE4+ individuals, 4 mg and 8 mg, after 16 weeks, versus placebo) was “the same or better clinical status”. For the same molecule, the “ADAS-cog change from baseline (FIG. 2), in words” value ([5]; APOE4+ individuals, all three treatment arms, after 24 weeks) was “finish with a clinical decline”, the “Cognitive function (ADAS-cog), in words” value ([5]; APOE4 heterozygotes (single APOE4 allele), listed as rosiglitazone) was “do not show any recognisable trend; also recorded: stabilisation in cognitive function” and the “ADAS-cog change, in words” value ([5]; APOE4 heterozygotes, 2 mg) was “some decline”. The “ADAS-cog change, in words” value ([5]; APOE4 heterozygotes, 4 mg and 8 mg) was “little change”, the “ADAS-cog change from baseline (FIG. 3), in words” value ([5]; APOE4 heterozygotes, higher doses (4, 8 mg)) was “remained close to the baseline” and the “Cognitive function (ADAS-cog), in words” value ([5]; APOE4 homozygotes (two APOE4 alleles), listed as rosiglitazone) was “relatively large positive change in ADAS-cog scores; also recorded: may experience a clinical decline”. For the same molecule, the “ADAS-cog change from baseline (FIG. 3), in words” value ([5]; APOE4 homozygotes) was “experienced a clinical decline”, the “ADAS-cog change from baseline (FIG. 2), in words” value ([5]; APOE4− individuals, 2 mg, 4 mg or 8 mg, all time points (8, 16 and 24 weeks)) was “marked improvement” and the “Cognitive function (ADAS-cog), in words” value ([5]; APOE4− patients (no APOE4 allele), listed as rosiglitazone) was “general trend of improvement in cognitive function; also recorded: clinically relevant improvement in cognitive function relative to placebo”. For the same molecule, the “ADAS-cog effect of treatment, in words” value ([5]; ITT population as a whole, 2, 4, 8 mg, listed as rosiglitazone) was “trend is not statistically significant; also recorded: non-statistically significant trend to a general improvement”.

In the case of `COc1cc2c(cc1OC)C(=O)C(CC1CCN(Cc3ccccc3)CC1)C2` (stereo not drawn) [donepezil], the “Rate at which patients developed AD” value [6] is given as “no separation between groups”.

For `CC12CC3CC(C)(C1)CC(N)(C3)C2` [memantine], the Adverse effects [7] is given as “low incidence of adverse effects” and the Rate of deterioration [7] is given as “significantly retard the rate of deterioration”.

For `CCc1ccc(CCOc2ccc(CC3SC(=O)NC3=O)cc2)nc1` (stereo not drawn) [pioglitazone, 5-[4-[2-(5-ethyl-2-pyridyl)ethoxy]benzyl]thiazolidine-2,4-dione], the “Protection of dopaminergic cells from toxic insults” value [4] is listed as “can protect dopaminergic cells”.

For `CS(=O)(=O)c1ccc(C2=C(c3ccccc3)C(=O)OC2)cc1` [rofecoxib], the “Efficacy in AD and MCI” value [8] is listed as “failed to show any efficacy”.

From patent US20080262047A1, “Ppar-Gamma Agonists for Improvement of Cognitive Function in Apoe4 Negative Patients” (priority 2005, published 2008)
